{
  "source": "ChEMBL document CHEMBL3882724",
  "about": "(2013)",
  "data": [
    {"target": "T1, CYP21 (steroid 21-hydroxylase) (Homo sapiens, UniProt P08686)", "T1 sequence (P08686 whole entry)": "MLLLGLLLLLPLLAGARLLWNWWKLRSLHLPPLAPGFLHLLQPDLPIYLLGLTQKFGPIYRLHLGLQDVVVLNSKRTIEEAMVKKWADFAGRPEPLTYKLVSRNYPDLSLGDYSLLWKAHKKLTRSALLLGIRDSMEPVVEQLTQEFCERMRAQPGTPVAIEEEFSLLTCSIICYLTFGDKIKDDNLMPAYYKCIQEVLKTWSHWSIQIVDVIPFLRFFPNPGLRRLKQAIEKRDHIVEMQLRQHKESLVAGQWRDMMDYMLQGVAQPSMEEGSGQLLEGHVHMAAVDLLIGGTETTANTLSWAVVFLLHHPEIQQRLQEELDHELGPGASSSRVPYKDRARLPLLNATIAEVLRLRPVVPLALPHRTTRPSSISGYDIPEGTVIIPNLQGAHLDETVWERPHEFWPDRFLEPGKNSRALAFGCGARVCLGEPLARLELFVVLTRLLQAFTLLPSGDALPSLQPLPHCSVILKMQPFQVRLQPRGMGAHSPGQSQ", "experiment": "Inhibition of human CYP21 transfected in HEK293 cells assessed as decrease in conversion of progesterone to 11-deoxycorticosterone preincubated for 5 hrs followed by progesterone addition measured after 20 hrs by ELISA", "format": "cell-based", "parameters": "concentration or dose not given beside the values", "conditions": "HEK293 cells transfected with human CYP21, probe progesterone", "units": {"inhibition at 20 h": "%"}, "values": [
      {"compound": "CC1C[C@@H]2[C@H](CC[C@]3(C)C(c4cncc(C(F)F)c4)=CC[C@@H]23)[C@@]2(C)CCC(=O)C=C12", "note": "(stereo not given in full)", "inhibition at 20 h": "10 to 50"},
      {"compound": "C[C@]12CC[C@H]3[C@@H](CCC45CC4C(O)CC[C@]35C)[C@@H]1CC=C2c1cncc(F)c1", "note": "(stereo not given in full)", "inhibition at 20 h": "10 to 50"},
      {"compound": "CC1(C)C(=O)CC[C@@]2(C)C1=CC[C@@H]1[C@@H]2CC[C@]2(C)C(c3cccnc3)=CC[C@@H]12", "inhibition at 20 h": "< 10"},
      {"compound": "CC1C[C@H]2[C@@H]3CC=C(c4cncc(F)c4)[C@@]3(C)CC[C@@H]2[C@@]2(C)CC[C@H](O)CC12O", "note": "(stereo not given in full)", "inhibition at 20 h": "10 to 50"},
      {"compound": "C[C@]1(O)CC[C@@]2(C)C(=CC[C@@H]3[C@@H]2CC[C@]2(C)C(c4cccnc4)=CC[C@@H]32)C1", "inhibition at 20 h": "≥ 50"},
      {"compound": "C[C@]12CC[C@@](O)(C3CC3)CC1CC[C@@H]1[C@@H]2CC[C@]2(C)C(c3cccnc3)=CC[C@@H]12", "note": "(stereo not given in full)", "inhibition at 20 h": "10 to 50"},
      {"compound": "C[C@]12CC[C@H](O)CC1=CC[C@@H]1[C@@H]2CC[C@]2(C)C(c3cncc(NS(=O)(=O)C(F)(F)F)c3)=CC[C@@H]12", "inhibition at 20 h": "< 10"},
      {"compound": "CC1C[C@@H]2[C@H](CC[C@]3(C)C(c4cccnc4)=CC[C@@H]23)[C@@]2(C)C=C/C(=N\\O)C=C12", "note": "(stereo not given in full)", "inhibition at 20 h": "10 to 50"},
      {"compound": "CC(C)(C)NC(=O)O[C@H]1CC[C@@]2(C)C(=CC[C@H]3C4=CC=C(c5cccnc5)[C@@]4(C)CC[C@@H]32)C1", "inhibition at 20 h": "10 to 50"},
      {"compound": "C[C@]12CC[C@@H](NC(=O)c3nccs3)CC1=CC[C@@H]1[C@@H]2CC[C@]2(C)C(n3ccnc3)=CC[C@@H]12", "inhibition at 20 h": "10 to 50"},
      {"compound": "COC1CC[C@@]2(C)C(=CC[C@@H]3[C@@H]2CC[C@]2(C)C(c4cncc(C)c4)=CC[C@@H]32)C1", "note": "(stereo not given in full)", "inhibition at 20 h": "< 10"},
      {"compound": "C[C@]12CCC3(CO3)CC1CCC1C2CC[C@]2(C)C(c3cccnc3)=CCC12", "note": "(stereo not given in full)", "inhibition at 20 h": "10 to 50"},
      {"compound": "C#CC1(O)CC[C@@]2(C)C(CC[C@@H]3[C@@H]2CC[C@]2(C)C(c4cccnc4)=CC[C@@H]32)C1", "note": "(single isomer, unassigned)", "inhibition at 20 h": "10 to 50"},
      {"compound": "CCNC(=O)O[C@H]1CC[C@@]2(C)C(=CC[C@H]3C4=CC=C(c5cccnc5)[C@@]4(C)CC[C@@H]32)C1", "inhibition at 20 h": "< 10"},
      {"compound": "Cc1cnc(F)c(C2=CC[C@H]3[C@@H]4CCC5=CC(=O)CC[C@]5(C)[C@H]4CC[C@]23C)c1", "inhibition at 20 h": "10 to 50"},
      {"compound": "Cc1ccncc1C1=CC=C2[C@@H]3CCC4CC(=O)CC[C@]4(C)[C@H]3CC[C@]12C", "note": "(stereo not given in full)", "inhibition at 20 h": "10 to 50"},
      {"compound": "C[C@]12CCNC(=O)CC1CCC1C2CC[C@]2(C)C(c3cncc(C(F)F)c3)=CCC12", "note": "(stereo not given in full)", "inhibition at 20 h": "≥ 50"},
      {"compound": "C[C@H]1C2CC[C@@H]3[C@H](CC[C@]4(C)C(c5cncc(C(F)F)c5)=CC[C@@H]34)[C@@]2(C)CC[C@@H]1O", "note": "(stereo not given in full)", "inhibition at 20 h": "10 to 50"},
      {"compound": "C[C@]12CC(F)(F)CC1CC[C@@H]1[C@@H]2CC[C@]2(C)C(c3cccnc3)=CC[C@@H]12", "note": "(stereo not given in full)", "inhibition at 20 h": "10 to 50"},
      {"compound": "CCc1ccncc1C1=CC=C2[C@@H]3CCC4CC(=O)CC[C@]4(C)[C@H]3CC[C@]12C", "note": "(stereo not given in full)", "inhibition at 20 h": "10 to 50"},
      {"compound": "CCNC(=S)N[C@@H]1CC[C@@]2(C)C(=CC[C@@H]3[C@@H]2CC[C@]2(C)C(c4cccnc4)=CC[C@@H]32)C1", "inhibition at 20 h": "10 to 50"},
      {"compound": "Cc1cc(C2=CC[C@H]3[C@@H]4CC=C5C[C@@H](O)CC[C@]5(C)[C@H]4CC[C@]23C)cnc1F", "inhibition at 20 h": "< 10"},
      {"compound": "CC1C[C@@H]2[C@H](CC[C@]3(C)C(c4cncc(C(F)F)c4)=CC[C@@H]23)[C@@]2(C)C=CC(=O)C=C12", "note": "(stereo not given in full)", "inhibition at 20 h": "10 to 50"},
      {"compound": "Cc1ccncc1C1=CC[C@H]2[C@@H]3CC[C@H]4CNC(=O)CC[C@]4(C)[C@H]3CC[C@]12C", "inhibition at 20 h": "10 to 50"},
      {"compound": "C[C@]12CC[C@H]3[C@@H](CC=C4C[C@@H](O)CC[C@@]43C)C1=CC=C2c1cncc(Cl)c1", "inhibition at 20 h": "10 to 50"},
      {"compound": "C[C@]12CC[C@@H](NC(=O)c3nccs3)CC1=CC[C@@H]1[C@@H]2CC[C@]2(C)C(c3cccnc3)=CC[C@@H]12", "inhibition at 20 h": "10 to 50"},
      {"compound": "CCc1cncc(C2=CC[C@H]3[C@@H]4CC[C@H]5C[C@@H](OC)CC[C@]5(C)[C@H]4CC[C@]23C)c1", "inhibition at 20 h": "10 to 50"},
      {"compound": "Cc1ccncc1C1=CC=C2C3CCC4C[C@@H](O)CC[C@]4(C)C3CC[C@]12C", "note": "(stereo not given in full)", "inhibition at 20 h": "10 to 50"},
      {"compound": "CC(CO)(CO)C(=O)O[C@H]1CC[C@@]2(C)C(=CC[C@H]3C4=CC=C(c5cccnc5)[C@@]4(C)CC[C@@H]32)C1", "inhibition at 20 h": "< 10"},
      {"compound": "C[C@]12CC[C@H](O)CC1=CC[C@@H]1[C@@H]2CC[C@]2(C)C(c3cncc(C#N)c3)=CC[C@@H]12", "inhibition at 20 h": "10 to 50"},
      {"compound": "C[C@]1(O)CC[C@@]2(C)C(=CC[C@@H]3[C@@H]2CC[C@]2(C)C(c4cncc(F)c4)=CC[C@@H]32)C1", "inhibition at 20 h": "10 to 50"},
      {"compound": "Cc1ccccc1C(=O)O[C@H]1CC[C@@]2(C)C(=CC[C@H]3C4=CC=C(c5cccnc5)[C@@]4(C)CC[C@@H]32)C1", "inhibition at 20 h": "10 to 50"},
      {"compound": "CCOc1cncc(C2=CC[C@H]3[C@@H]4CC[C@H]5C[C@@H](OC)CC[C@]5(C)[C@H]4CC[C@]23C)c1", "inhibition at 20 h": "10 to 50"},
      {"compound": "CCNC(=O)N[C@@H]1CC[C@@]2(C)C(=CC[C@@H]3[C@@H]2CC[C@]2(C)C(c4cncc(F)c4)=CC[C@@H]32)C1", "inhibition at 20 h": "10 to 50"},
      {"compound": "C[C@]12CC[C@H](O)CC1=CC[C@@H]1[C@@H]2CC[C@]2(C)C(c3cncc(NS(C)(=O)=O)c3)=CC[C@@H]12", "inhibition at 20 h": "< 10"},
      {"compound": "C[C@]12CC/C(=N\\O)C=C1C(F)C[C@@H]1[C@@H]2CC[C@]2(C)C(c3cccnc3)=CC[C@@H]12", "note": "(stereo not given in full)", "inhibition at 20 h": "10 to 50"},
      {"compound": "CC1(O)C=C2CC[C@@H]3[C@H](CC[C@]4(C)C(c5cccnc5)=CC[C@@H]34)[C@@]2(C)CC1", "note": "(stereo not given in full)", "inhibition at 20 h": "10 to 50"},
      {"compound": "CC1(O)CC2CC[C@@H]3C(CC[C@]4(C)C(c5cccnc5)=CC[C@@H]34)[C@@]2(C)C1", "note": "(single isomer, unassigned)", "inhibition at 20 h": "10 to 50"},
      {"compound": "CC(=O)N(C)[C@H]1CC[C@@]2(C)C(CC[C@@H]3[C@@H]2CC[C@]2(C)C(c4cccnc4)=CC[C@@H]32)C1", "note": "(stereo not given in full)", "inhibition at 20 h": "10 to 50"},
      {"compound": "C[C@@]1(O)CC[C@@]2(C)C(CC[C@@H]3[C@@H]2CC[C@]2(C)C(c4cncc(Cl)c4)=CC[C@@H]32)C1", "note": "(stereo not given in full)", "inhibition at 20 h": "10 to 50"},
      {"compound": "C[C@]12CC[C@H](O)CC1CC[C@@H]1[C@@H]2CC[C@]2(C)C(c3cccnc3)CC[C@@H]12", "note": "(stereo not given in full)", "inhibition at 20 h": "< 10"},
      {"compound": "CC(C)(C)C(=O)O[C@H]1CC[C@@]2(C)C(=CC[C@H]3C4=CC=C(c5cccnc5)[C@@]4(C)CC[C@@H]32)C1", "inhibition at 20 h": "10 to 50"},
      {"compound": "Cc1cnc(F)c(C2=CC[C@H]3[C@@H]4CC=C5C[C@@H](O)CC[C@]5(C)[C@H]4CC[C@]23C)c1", "inhibition at 20 h": "10 to 50"},
      {"compound": "COC1CC[C@@]2(C)C(=CC[C@@H]3[C@@H]2CC[C@]2(C)C(c4cccnc4)=CC[C@@H]32)C1", "note": "(stereo not given in full)", "inhibition at 20 h": "< 10"},
      {"compound": "CCc1ccncc1C1=CC[C@H]2[C@@H]3CC[C@H]4CC(=O)NCC[C@]4(C)[C@H]3CC[C@]12C", "inhibition at 20 h": "10 to 50"},
      {"compound": "CC1(C)C2=CC[C@@H]3[C@H](CC[C@]4(C)C(c5cccnc5)=CC[C@@H]34)[C@@]2(C)CCC1O", "note": "(stereo not given in full)", "inhibition at 20 h": "< 10"},
      {"compound": "C[C@@H]1C2CC[C@@H]3[C@H](CC[C@]4(C)C(c5cncc(C(F)F)c5)=CC[C@@H]34)[C@@]2(C)CC[C@H]1O", "note": "(stereo not given in full)", "inhibition at 20 h": "< 10"},
      {"compound": "C[C@]12CC[C@H]3[C@@H](CCC4=CC(=O)CC[C@@]43C)C1=CC=C2c1ccc(F)nc1", "inhibition at 20 h": "10 to 50"},
      {"compound": "CCc1ccncc1C1=CC=C2[C@@H]3CCC4C[C@@H](OC(C)=O)CC[C@]4(C)[C@H]3CC[C@]12C", "note": "(stereo not given in full)", "inhibition at 20 h": "10 to 50"},
      {"compound": "Cc1ccncc1C1=CC=C2[C@@H]3CC[C@H]4CC(=O)NCC[C@]4(C)[C@H]3CC[C@]12C", "inhibition at 20 h": "10 to 50"},
      {"compound": "CC1C(O)CC[C@@]2(C)C1CC[C@@H]1[C@@H]2CC[C@]2(C)C(c3cncc(C(F)F)c3)=CC[C@@H]12", "note": "(stereo not given in full)", "inhibition at 20 h": "< 10"},
      {"compound": "CC(C)(C)C(=O)N[C@@H]1CC[C@@]2(C)C(CC[C@@H]3[C@@H]2CC[C@]2(C)C(c4cccnc4)=CC[C@@H]32)C1", "note": "(stereo not given in full)", "inhibition at 20 h": "10 to 50"},
      {"compound": "C[C@@]1(O)CC[C@@]2(C)C(CC[C@@H]3[C@@H]2CC[C@]2(C)C(c4cccnc4)=CC[C@@H]32)C1", "note": "(stereo not given in full)", "inhibition at 20 h": "< 10"},
      {"compound": "CC1C(=O)CC[C@@]2(C)C1CC[C@@H]1[C@@H]2CC[C@]2(C)C(c3cccnc3)=CC[C@@H]12", "note": "(stereo not given in full)", "inhibition at 20 h": "10 to 50"},
      {"compound": "C[C@]12CC[C@@H](NS(C)(=O)=O)CC1=CC[C@H]1C3CC=C(c4cccnc4)[C@@]3(C)CC[C@@H]12", "note": "(single isomer, unassigned)", "inhibition at 20 h": "10 to 50"}
    ]}
  ]
}
